Source: the supplement of paper PMC4862054

Key:
Conditions in all cases: incubation time: 72 h
Hs578T = experiment: normalised viability (% of control), CellTiter-Blue; higher = more viable cells (about 100 = DMSO control)
Procedure, shortened: (§1)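 Vehicle (100) and a positive kill control (0) anchored the normalisation of each plate, and Z'-factor was used for quality control. Breast cancer cell lines in 20 µl suspension were incubated 72 h over compound in 5 µl medium in 384-well plates, followed by CellTiter-Blue at 560/590 nm. The value is normalised viability at a single listed concentration of the series.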

HCC1937 [1] = experiment: as above
Procedure, shortened: as §1

MDA-MB-231 [2] = experiment: as above
Procedure, shortened: as §1

DU-4475 = experiment: as above
Procedure, shortened: as §1

HCC1599 = experiment: as above
Procedure, shortened: as §1

HDQ-P1 [3] = experiment: as above
Procedure, shortened: as §1

MDA-MB-453 = experiment: as above
Procedure, shortened: as §1

CAL-85-1 = experiment: as above
Procedure, shortened: as §1

CAL-120 = experiment: as above
Procedure, shortened: as §1

BT-549 = experiment: as above
Procedure, shortened: as §1

MFM-223 = experiment: as above
Procedure, shortened: as §1

CAL-148 = experiment: as above
Procedure, shortened: as §1

MDA-MB-436 = experiment: as above
Procedure, shortened: as §1

HCC1143 [4] = experiment: as above
Procedure, shortened: as §1

SK-BR-3 = experiment: as above
Procedure, shortened: as §1

MDA-MB-468 = experiment: as above
Procedure, shortened: as §1

BT-474 [5] = experiment: as above
Procedure, shortened: as §1

CAL-51 = experiment: as above
Procedure, shortened: as §1

HCC1937 [6] = experiment: drug sensitivity score (DSS), CellTiter-Glo (DSS (AUC-based score)); higher = stronger drug effect (viability inhibition or cytotoxicity); extreme values may be limits of the assay
Procedure, shortened: (§2)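 Breast cancer cell lines (20 µl suspension) were seeded into 384-well plates holding compound at 5 concentrations in 10-fold steps over a compound-specific 10,000-fold range, then incubated 72 h. CellTox Green fluorescence (485/520 nm) was read first, then CellTiter-Glo luminescence after 10 min at room temperature. Each plate was normalised to 0.1 % DMSO and a positive kill control. The drug sensitivity score was calculated from the area under the fitted dose-response curve.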

MDA-MB-231 [7] = experiment: as above
Procedure, shortened: as §2

HDQ-P1 [8] = experiment: as above
Procedure, shortened: as §2

HCC1143 [9] = experiment: as above
Procedure, shortened: as §2

BT-474 [10] = experiment: as above
Procedure, shortened: as §2

MCF-10A = experiment: as above
Procedure, shortened: as §2

O=C(O)CC[C@H]1CC[C@@](c2cc(F)ccc2F)(S(=O)(=O)c2ccc(Cl)cc2)CC1 [MK-0752]
normalised viability [%]
Conditions	0.3 nM	1 nM	3 nM	10 nM	100 nM	1000 nM
BT-474 [5]	–	121	–	–	128	134
BT-549	–	93.4	–	–	80.3	99.1
CAL-51	106	–	101	98.8	–	–
CAL-85-1	98.7	–	82.4	103	–	–
CAL-120	–	90.2	–	–	97.2	95.7
CAL-148	99.1	–	109	111	–	–
DU-4475	115	–	91.5	101	–	–
HCC1143 [4]	–	81.5	–	–	108	89.4
HCC1599	–	98.2	–	–	81.8	74.7
HCC1937 [1]	–	96	–	–	86.9	92.1
HDQ-P1 [3]	122	–	96.5	115	–	–
Hs578T	–	137	–	–	103	113
MDA-MB-231 [2]	–	97.7	–	–	92.5	89.7
MDA-MB-436	–	109	–	–	92.2	111
MDA-MB-453	113	–	107	125	–	–
MDA-MB-468	–	98.9	–	–	94.9	110
MFM-223	–	103	–	–	94.3	97.9
SK-BR-3	–	106	–	–	105	111

Conditions	drug sensitivity score
BT-474 [10]	0
HCC1143 [9]	0
HCC1937 [6]	0
HDQ-P1 [8]	0
MCF-10A	0
MDA-MB-231 [7]	0

NC1(c2ccc(-c3nc4ccn5c(=O)[nH]nc5c4cc3-c3ccccc3)cc2)CCC1 [MK-2206]
normalised viability [%]
Conditions	0.3 nM	1 nM	3 nM	10 nM	100 nM	1000 nM
BT-474 [5]	–	115	–	–	92.3	54
BT-549	–	101	–	–	106	85.3
CAL-51	104	–	101	99.6	–	–
CAL-85-1	104	–	95	100	–	–
CAL-120	–	111	–	–	106	79.2
CAL-148	102	–	106	110	–	–
DU-4475	120	–	111	107	–	–
HCC1143 [4]	–	105	–	–	108	87.7
HCC1599	–	98.8	–	–	95.7	62.3
HCC1937 [1]	–	87.4	–	–	98.5	104
HDQ-P1 [3]	110	–	111	109	–	–
Hs578T	–	118	–	–	124	85.2
MDA-MB-231 [2]	–	127	–	–	95.9	104
MDA-MB-436	–	104	–	–	80.7	81
MDA-MB-453	112	–	95.2	96.6	–	–
MDA-MB-468	–	108	–	–	90.7	72.9
MFM-223	–	109	–	–	96.8	19.8
SK-BR-3	–	107	–	–	76.2	42.1

Conditions	drug sensitivity score
BT-474 [10]	0
HCC1143 [9]	0
HCC1937 [6]	0
HDQ-P1 [8]	0
MCF-10A	0
MDA-MB-231 [7]	0

NC(=O)c1cccc2cn(-c3ccc([C@@H]4CCCNC4)cc3)nc12 [MK-4827]
normalised viability [%]
Conditions	3 nM	10 nM	30 nM	100 nM	1000 nM	10000 nM
BT-474 [5]	–	119	–	–	100	92.7
BT-549	–	79.1	–	–	93.3	72.4
CAL-51	112	–	105	104	–	–
CAL-85-1	95.8	–	92	93.1	–	–
CAL-120	–	81	–	–	76.9	71.1
CAL-148	97.7	–	98.2	95.8	–	–
DU-4475	94.8	–	81.1	85.5	–	–
HCC1143 [4]	–	88.9	–	–	85	64.6
HCC1599	–	93.4	–	–	116	93.3
HCC1937 [1]	–	55.2	–	–	70.5	38.3
HDQ-P1 [3]	95.3	–	94.1	95.6	–	–
Hs578T	–	96.2	–	–	93.7	80.7
MDA-MB-231 [2]	–	94	–	–	90.7	62.2
MDA-MB-436	–	84.2	–	–	72.4	65.3
MDA-MB-453	116	–	90.8	93.3	–	–
MDA-MB-468	–	101	–	–	89	50.4
MFM-223	–	92.4	–	–	96.4	111
SK-BR-3	–	95.9	–	–	95.2	74.9

Conditions	drug sensitivity score
BT-474 [10]	0
HCC1143 [9]	0
HCC1937 [6]	0
HDQ-P1 [8]	0
MCF-10A	0
MDA-MB-231 [7]	0
